Assay results as given in PubChem BioAssay (NCI).
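A five-concentration, 48-hour dose response in 96-well plates underlies each endpoint, interpolated linearly between surrounding concentrations. The concentration for 50% growth inhibition is given as GI50. At the TGI there is no net growth.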

Legend:
Assay in all cases: NCI anticancer screen, dose series, 48 h; in the data active means GI50 below about 0.43 µM; inactive means the rest
[1] = test system: HCT-116 colon
[2] = test system: SK-MEL-28 melanoma
[3] = test system: 786-0 renal
[4] = test system: ACHN renal
[5] = test system: HOP-92 NSCLC
[6] = test system: UACC-62 melanoma
[7] = test system: NCI-H522 lung
[8] = test system: SF-539 CNS
[9] = test system: OVCAR-8 ovarian
[10] = test system: HCC-2998 colon
[11] = test system: OVCAR-5 ovarian
[12] = test system: HS 578T breast
[13] = test system: IGROV1 ovarian
[14] = test system: RPMI-8226 leukemia
[15] = test system: A549 NSCLC
[16] = test system: OVCAR-3 ovarian
[17] = test system: NCI-H460 lung
[18] = test system: MDA-MB-435
[19] = test system: SNB-75 CNS
[20] = test system: A498 renal
[21] = test system: SK-MEL-2 melanoma
[22] = test system: NCI-H226 lung
[23] = test system: RXF 393 renal
[24] = test system: UO-31 renal
[25] = test system: HCT-15 colon
[26] = test system: SN12C renal
[27] = test system: MCF7 breast
[28] = test system: OVCAR-4 ovarian
[29] = test system: K-562 leukemia
[30] = test system: SK-MEL-5 melanoma
[31] = test system: KM12 colon
[32] = test system: EKVX NSCLC
[33] = test system: MOLT-4 leukemia
[34] = test system: DU-145 prostate
[35] = test system: SF-295 CNS
[36] = test system: HT29 colon
[37] = test system: U251 CNS
[38] = test system: CCRF-CEM leukemia
[39] = test system: SF-268 CNS
[40] = test system: NCI/ADR-RES ovarian
[41] = test system: SR leukemia
[42] = test system: HOP-62 NSCLC
[43] = test system: SW-620 colon
[44] = test system: SNB-19 CNS
[45] = test system: SK-OV-3 ovarian
[46] = test system: MALME-3M melanoma
[47] = test system: NCI-H23 lung
[48] = test system: TK-10 renal
[49] = test system: PC-3 prostate
[50] = test system: LOX IMVI melanoma
[51] = test system: MDA-MB-231 breast
[52] = test system: HL-60(TB) leukemia
[53] = test system: COLO 205 colon
[54] = test system: BT-549 breast
[55] = test system: UACC-257 melanoma
[56] = test system: T-47D breast
[57] = test system: CAKI-1 renal

C[C@]12CC[C@H]3[C@@H](CC=C4C[C@@H](O)CC[C@@]43C)[C@@H]1CC[C@@H]2[C@](C)(O)CCc1cccnc1
6.55 µM: TGI [54]
49.9 µM: TGI [14]
7.78 µM: TGI [23]
7.04 µM: TGI [52]
24 µM: TGI [33]
2.6 µM: TGI [30]
inactive: GI50 [1] 3.42 µM | GI50 [2] 4.27 µM | GI50 [3] 5.76 µM | GI50 [4] 4.53 µM | GI50 [5] 2.11 µM | GI50 [6] 3.19 µM | GI50 [7] 2.09 µM | GI50 [8] 6.11 µM | GI50 [9] 4.82 µM | GI50 [10] 4.99 µM | GI50 [11] > 100 µM | GI50 [12] 3.41 µM | GI50 [13] 6.37 µM | GI50 [14] 1.88 µM | GI50 [15] 4.44 µM | GI50 [16] 9.14 µM | GI50 [17] 3.99 µM | GI50 [18] 4.6 µM | GI50 [19] 2.92 µM | GI50 [20] 2.74 µM | GI50 [21] 7.44 µM | GI50 [22] 3.7 µM | GI50 [23] 1.94 µM | GI50 [24] 1.97 µM | GI50 [25] 4.29 µM | GI50 [26] 47.1 µM | GI50 [27] 2.28 µM | GI50 [28] 1.25 µM | GI50 [29] 2.13 µM | GI50 [30] 1.01 µM | GI50 [31] 5.55 µM | GI50 [32] 1.59 µM | GI50 [33] 2.75 µM | GI50 [34] 3.48 µM | GI50 [35] 2.21 µM | GI50 [36] 4.6 µM | GI50 [37] 6.5 µM | GI50 [38] 4.1 µM | GI50 [39] 5.3 µM | GI50 [40] 3.43 µM | GI50 [41] 2.95 µM | GI50 [42] 9.27 µM | GI50 [43] 5.49 µM | GI50 [44] 6.77 µM | GI50 [45] 6.49 µM | GI50 [46] 2.57 µM | GI50 [47] 3.05 µM | GI50 [48] 7.58 µM | GI50 [49] 3.55 µM | GI50 [50] 5.63 µM | GI50 [51] 6.39 µM | GI50 [52] 2.42 µM | GI50 [53] 3.16 µM | GI50 [54] 1.69 µM | GI50 [55] 3.03 µM | GI50 [56] 2.09 µM | GI50 [57] 7.1 µM
9.64 µM: TGI [35]
55 µM: TGI [22]
> 100 µM: TGI [1] | TGI [2] | TGI [3] | TGI [4] | TGI [5] | TGI [6] | TGI [8] | TGI [9] | TGI [10] | TGI [11] | TGI [12] | TGI [13] | TGI [15] | TGI [16] | TGI [17] | TGI [18] | TGI [19] | TGI [21] | TGI [24] | TGI [25] | TGI [26] | TGI [27] | TGI [28] | TGI [29] | TGI [31] | TGI [32] | TGI [34] | TGI [36] | TGI [37] | TGI [38] | TGI [39] | TGI [40] | TGI [41] | TGI [42] | TGI [43] | TGI [44] | TGI [45] | TGI [47] | TGI [48] | TGI [49] | TGI [50] | TGI [51] | TGI [53] | TGI [55] | TGI [56] | TGI [57]
7.79 µM: TGI [7]
8.14 µM: TGI [46]
62.1 µM: TGI [20]
